The values below come from patent US5502035A, “N-terminus modified analogs of LHRH” (Tap Holdings Inc., priority 1994, dated 1996).

Non-standard residues stand in square brackets, D forms with d. Residues, ends and D or L forms follow the SMILES beside them. *: point of attachment. Shikimoyl = O=C(C1=C[C@@H](O)[C@@H](O)[C@H](O)C1)*; dPhe(4-Cl) = N[C@H](Cc1ccc(Cl)cc1)C(=O)O; d2Nal = N[C@H](Cc1ccc2ccccc2c1)C(=O)O; Lys(iPr) = CC(C)NCCCC[C@H](N)C(=O)O; NMeY = CN[C@@H](Cc1ccc(O)cc1)C(=O)O; d3Pal = N[C@H](Cc1cccnc1)C(=O)O; Isonicotinoyl = O=C(c1ccncc1)*; Nicotinoyl = O=C(c1cccnc1)*; Picolinoyl = O=C(c1ccccn1)*; 2Furoyl = O=C(c1ccco1)*; X6 = O=C(c1ccoc1)*

For this assay, the target named is T1, LHRH (Rattus norvegicus, UniProt P30969).
T1 construct: endogenous in cells; host or cells: rat pituitary cells (own knowledge of the cited Haviv 1989 method)
T1 sequence (P30969 1-327): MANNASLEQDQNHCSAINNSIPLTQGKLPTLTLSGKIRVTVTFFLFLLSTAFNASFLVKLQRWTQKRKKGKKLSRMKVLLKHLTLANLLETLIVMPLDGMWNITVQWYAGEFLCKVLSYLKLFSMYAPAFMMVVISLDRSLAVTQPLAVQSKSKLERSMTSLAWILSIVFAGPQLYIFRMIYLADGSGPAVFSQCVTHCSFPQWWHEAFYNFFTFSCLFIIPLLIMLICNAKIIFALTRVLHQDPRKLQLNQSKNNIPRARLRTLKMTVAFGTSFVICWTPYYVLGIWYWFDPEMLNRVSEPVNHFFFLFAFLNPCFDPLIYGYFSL
The assay is described as follows: in vitro test for LHRH antagonist potency (pA2). Type of assay: cell-based. As to conditions: negative logarithm of the antagonist concentration required to shift the response curve produced by the agonist leuprolide to two-fold higher concentration. Here is the method:
Representative compounds of the present invention were evaluated in an in vitro test for LHRH antagonist potency (pA2). The test employed the method detailed in F. Haviv, et al. J. Med. Chem., 32:2340-2344 (1989). The values of pA2 are the negative logarithms of the concentration of the particular antagonist test compound required to shift the response curve produced by the agonist leuprolide to two-fold higher concentration. (Leuprolide is the LHRH agonist having the structure 5-oxo-Pro^1 -His^2 -Trp^3 -Ser^4 -Tyr^5 -D-Leu^6 -Leu^7 -Arg^8 -Pro^9 -NHEt and is disclosed and claimed in U.S. Pat. No. 4,005,063.) Typically pA2 values of 9.5 or greater are indicative of good LHRH antagonist potency, with values of 10.0 or greater being preferred.

In the case of `CC(C)C[C@H](NC(=O)[C@@H](CCCCNC(=O)c1cccnc1)NC(=O)[C@H](Cc1ccc(O)cc1)N(C)C(=O)[C@H](CO)NC(=O)[C@@H](Cc1cccnc1)NC(=O)[C@@H](Cc1ccc(Cl)cc1)NC(=O)[C@@H](Cc1ccc2ccccc2c1)NC(=O)CNC(=O)C1CCCO1)C(=O)N[C@@H](CCCCNC(C)C)C(=O)N1CCC[C@H]1C(=O)N[C@H](C)C(N)=O` (mixture of isomers) [Example 3, N-(R,S)-Tetrahydrofur-2-oyl-Gly-D2Nal-D4ClPhe-D3Pal-Ser-NMeTyr-DLys(Nicotinyl) -Leu-Lys(N-epsilon-Isopropyl)-Pro-DAlaNH2], the antagonist equilibrium constant (Kb) (as a rule, the equilibrium dissociation constant of an antagonist, usually derived from a functional assay) is 0.0158 nM. The same measure for `CC(C)C[C@H](NC(=O)[C@@H](CCCCNC(=O)NNC(=O)c1cccnc1)NC(=O)[C@H](Cc1ccc(O)cc1)N(C)C(=O)[C@H](CO)NC(=O)[C@@H](Cc1cccnc1)NC(=O)[C@@H](Cc1ccc(Cl)cc1)NC(=O)[C@@H](Cc1ccc2ccccc2c1)NC(=O)CNC(=O)C1CCCO1)C(=O)N[C@@H](CCCCNC(C)C)C(=O)N1CCC[C@H]1C(=O)N[C@H](C)C(N)=O` (mixture of isomers) [Example 11, N-(R,S)Tetrahydrofur-2-oyl-Gly-D2Nal-D4ClPhe-D3Pal-Ser-NMeTyr-DLys(Azagly-Nicotinyl) -Leu-Lys(N-epsilon-Isopropyl)-Pro-DAlaNH2]: 0.038 nM; for `CC(C)C[C@H](NC(=O)[C@@H](CCCCNC(=O)CNC(=O)c1cccnc1)NC(=O)[C@H](Cc1ccc(O)cc1)N(C)C(=O)[C@H](CO)NC(=O)[C@@H](Cc1cccnc1)NC(=O)[C@@H](Cc1ccc(Cl)cc1)NC(=O)[C@@H](Cc1ccc2ccccc2c1)NC(=O)CNC(=O)C1CCCO1)C(=O)N[C@@H](CCCNC(=N)N)C(=O)N1CCC[C@H]1C(=O)N[C@H](C)C(N)=O` (mixture of isomers) [Example 27b, N-(R,S)-Tetrahydrofur-2oyl-Gly-D2Nal-D4ClPhe-D3Pal-Ser-NMeTyr-DLys(Gly-Nic)-Leu-Arg-Pro-DAlaNH 2]: 0.0135 nM; for `CC(C)C[C@H](NC(=O)[C@@H](CCCCNC(=O)NNC(=O)c1ccco1)NC(=O)[C@H](Cc1ccc(O)cc1)N(C)C(=O)[C@H](CO)NC(=O)[C@@H](Cc1cccnc1)NC(=O)[C@@H](Cc1ccc(Cl)cc1)NC(=O)[C@@H](Cc1ccc2ccccc2c1)NC(=O)CNC(=O)C1CCCO1)C(=O)N[C@@H](CCCCNC(C)C)C(=O)N1CCC[C@H]1C(=O)N[C@H](C)C(N)=O` (mixture of isomers) [Example 30a, N-(R,S)-Tetrahydrofur-2-oyl-Gly-D2Nal-D4ClPhe-D3Pal-Ser-NMeTyr-DLys(Azagly-2Fur)-Leu-Lys(Isp)-Pro-DAlaNH2]: 0.0479 nM. The same measure for `CC(C)C[C@H](NC(=O)[C@@H](CCCCNC(=O)c1cccnc1)NC(=O)[C@H](Cc1ccc(O)cc1)N(C)C(=O)[C@H](CO)NC(=O)[C@@H](Cc1cccnc1)NC(=O)[C@@H](Cc1ccc(Cl)cc1)NC(=O)[C@@H](Cc1ccc2ccccc2c1)NC(=O)CNC(=O)C1CCCO1)C(=O)N[C@@H](CCCCNC(C)C)C(=O)N1CCC[C@H]1C(=O)N(C)CC(N)=O` (mixture of isomers) [Example 38, N-(R,S)-Tetrahydrofur-2-oyl-Gly-D2Nal-D4ClPhe-D3Pal-Ser-NMeTyr-DLys(Nicotinyl)-Leu-Lys(Isp)-Pro-SarNH2]: 0.0309 nM; for `CC(C)C[C@H](NC(=O)[C@@H](CCCCNC(=O)c1cccnc1)NC(=O)[C@H](Cc1ccc(O)cc1)NC(=O)[C@H](CO)NC(=O)[C@@H](Cc1cccnc1)NC(=O)[C@@H](Cc1ccc(Cl)cc1)NC(=O)[C@@H](Cc1ccc2ccccc2c1)NC(=O)CNC(=O)C1CCCO1)C(=O)N[C@@H](CCCCNC(C)C)C(=O)N1CCC[C@H]1C(=O)N[C@H](C)C(N)=O` (mixture of isomers) [Example 91, N (R,S)-2-Tetrahydrofuroyl-Gly-D2Nal-D4ClPhe-D3Pal-Ser-Tyr-DLys(N-epsilon-Nicotinyl) -Leu-Lys(N-epsilon-Isopropyl)-Pro-DAlaNH2]: 0.00219 nM; for `CC(=O)N[C@H](Cc1ccc(O)cc1)C(=O)N[C@H](Cc1ccc2ccccc2c1)C(=O)N[C@H](Cc1ccc(Cl)cc1)C(=O)N[C@H](Cc1cccnc1)C(=O)N[C@@H](CO)C(=O)N(C)[C@@H](Cc1ccc(O)cc1)C(=O)N[C@H](CCCCNC(=O)c1cccnc1)C(=O)N[C@@H](CC(C)C)C(=O)N[C@@H](CCCCNC(C)C)C(=O)N1CCC[C@H]1C(=O)N[C@H](C)C(N)=O` [Example 1, N-Ac-DTyr-D2Nal-D4ClPhe-D3Pal-Ser-NMeTyr-DLys(Nicotinyl)-Leu-Lys(N-epsilon- Isopropyl) -Pro-DAlaNH2] (Ac-[dY][d2Nal][dPhe(4-Cl)][d3Pal]S[NMeY][dK](Nicotinoyl)L[Lys(iPr)]P[dA]-NH2): 0.0178 nM. Consider `CC(C)C[C@H](NC(=O)[C@@H](CCCCNC(=O)c1cccnc1)NC(=O)[C@H](Cc1ccc(O)cc1)N(C)C(=O)[C@H](CO)NC(=O)[C@@H](Cc1cccnc1)NC(=O)[C@@H](Cc1ccc(Cl)cc1)NC(=O)[C@@H](Cc1ccc2ccccc2c1)NC(=O)CNC(=O)C1=C[C@@H](O)[C@@H](O)[C@H](O)C1)C(=O)N[C@@H](CCCCNC(C)C)C(=O)N1CCC[C@H]1C(=O)N[C@H](C)C(N)=O` [Example 2a, N-Shikimyl-Gly-D2Nal-D4ClPhe-D3Pal-Ser-NMeTyr-DLys(N-epsilon-Nicotinyl) -Leu-Lys(N-epsilon-Isopropyl)-Pro-DAlaNH2] (Shikimoyl-G[d2Nal][dPhe(4-Cl)][d3Pal]S[NMeY][dK](Nicotinoyl)L[Lys(iPr)]P[dA]-NH2), for which the antagonist equilibrium constant (Kb) was 0.0282 nM. The same measure for `CC(C)C[C@H](NC(=O)[C@@H](CCCCNC(=O)c1cccnc1)NC(=O)[C@H](Cc1ccc(O)cc1)N(C)C(=O)[C@H](CO)NC(=O)[C@@H](Cc1cccnc1)NC(=O)[C@@H](Cc1ccc(Cl)cc1)NC(=O)[C@@H](Cc1ccc2ccccc2c1)NC(=O)CNC(=O)c1ccco1)C(=O)N[C@@H](CCCCNC(C)C)C(=O)N1CCC[C@H]1C(=O)N[C@H](C)C(N)=O` [Example 2c, N-2-Furoyl-Gly-D2Nal-D4ClPhe-D3Pal-Ser-NMeTyr-DLys(N-epsilon-Nicotinyl) -Leu-Lys(N-epsilon-Isopropyl)-Pro-DAlaNH2] (2Furoyl-G[d2Nal][dPhe(4-Cl)][d3Pal]S[NMeY][dK](Nicotinoyl)L[Lys(iPr)]P[dA]-NH2): 0.00794 nM. Turning to `CC(C)C[C@H](NC(=O)[C@@H](CCCCNC(=O)c1cccnc1)NC(=O)[C@H](Cc1ccc(O)cc1)N(C)C(=O)[C@H](CO)NC(=O)[C@@H](Cc1cccnc1)NC(=O)[C@@H](Cc1ccc(Cl)cc1)NC(=O)[C@@H](Cc1ccc2ccccc2c1)NC(=O)CNC(=O)c1ccoc1)C(=O)N[C@@H](CCCCNC(C)C)C(=O)N1CCC[C@H]1C(=O)N[C@H](C)C(N)=O` [Example 2d, N-3Furoyl-Gly-D2Nal-D4ClPhe-D3Pal-Ser-NMeTyr-DLys(N-epsilon-Nicotinyl) -Leu-Lys(N-epsilon-Isopropyl)-Pro-DAlaNH2] (X6-G[d2Nal][dPhe(4-Cl)][d3Pal]S[NMeY][dK](Nicotinoyl)L[Lys(iPr)]P[dA]-NH2), the Kb is 0.0126 nM.

On to `CC(C)C[C@H](NC(=O)[C@@H](CCCCNC(=O)c1cccnc1)NC(=O)[C@H](Cc1ccc(O)cc1)N(C)C(=O)[C@H](CO)NC(=O)[C@@H](Cc1cccnc1)NC(=O)[C@@H](Cc1ccc(Cl)cc1)NC(=O)[C@@H](Cc1ccc2ccccc2c1)NC(=O)CNC(=O)c1ccccn1)C(=O)N[C@@H](CCCCNC(C)C)C(=O)N1CCC[C@H]1C(=O)N[C@H](C)C(N)=O` [Example 2e, N-Picolyl-Gly-D2Nal-D4ClPhe-D3Pal-Ser-NMeTyr-DLys(N-epsilon-Nicotinyl) -Leu-Lys(N-epsilon-Isopropyl)-Pro-DAlaNH2] (Picolinoyl-G[d2Nal][dPhe(4-Cl)][d3Pal]S[NMeY][dK](Nicotinoyl)L[Lys(iPr)]P[dA]-NH2; N-terminus assumed), for which the Kb is 0.02 nM. The same measure for `CC(C)C[C@H](NC(=O)[C@@H](CCCCNC(=O)c1cccnc1)NC(=O)[C@H](Cc1ccc(O)cc1)N(C)C(=O)[C@H](CO)NC(=O)[C@@H](Cc1cccnc1)NC(=O)[C@@H](Cc1ccc(Cl)cc1)NC(=O)[C@@H](Cc1ccc2ccccc2c1)NC(=O)CNC(=O)c1cccnc1)C(=O)N[C@@H](CCCCNC(C)C)C(=O)N1CCC[C@H]1C(=O)N[C@H](C)C(N)=O` [Example 2f, N-Nicotinyl-Gly-D2Nal-D4ClPhe-D3Pal-Ser-NMeTyr-DLys(N-epsilon-Nicotinyl) -Leu-Lys(N-epsilon-Isopropyl)-Pro-DAlaNH2] (Nicotinoyl-G[d2Nal][dPhe(4-Cl)][d3Pal]S[NMeY][dK](Nicotinoyl)L[Lys(iPr)]P[dA]-NH2): 0.00891 nM; for `CC(C)C[C@H](NC(=O)[C@@H](CCCCNC(=O)c1cccnc1)NC(=O)[C@H](Cc1ccc(O)cc1)N(C)C(=O)[C@H](CO)NC(=O)[C@@H](Cc1cccnc1)NC(=O)[C@@H](Cc1ccc(Cl)cc1)NC(=O)[C@@H](Cc1ccc2ccccc2c1)NC(=O)CNC(=O)c1ccncc1)C(=O)N[C@@H](CCCCNC(C)C)C(=O)N1CCC[C@H]1C(=O)N[C@H](C)C(N)=O` [Example 2g, N-Isonicotinyl-Gly-D2Nal-D4ClPhe-D3Pal-Ser-NMeTyr-DLys(N-epsilon-Nicotinyl) -Leu-Lys(N-epsilon-Isopropyl)-Pro-DAlaNH2] (Isonicotinoyl-G[d2Nal][dPhe(4-Cl)][d3Pal]S[NMeY][dK](Nicotinoyl)L[Lys(iPr)]P[dA]-NH2): 0.00708 nM.
